Measured values as given in patent EP0792647A1, “Porphyrins as urokinase-type plasminogen activator receptor antagonists” (BOEHRINGER MANNHEIM GMBH, priority 1996, dated 1997).
Structures can show the parent of a compound that is named as a salt. Where two headings read alike, the source gives them in different places.

Tests used:
[1] = biological target: T1, human urokinase (uPA) binding to its specific receptor (uPAR) (Homo sapiens, UniProt Q03405); test: ELISA-Test: inhibition of uPA binding to its specific receptor (uPAR)
T1 sequence (Q03405 23-305 limits assumed): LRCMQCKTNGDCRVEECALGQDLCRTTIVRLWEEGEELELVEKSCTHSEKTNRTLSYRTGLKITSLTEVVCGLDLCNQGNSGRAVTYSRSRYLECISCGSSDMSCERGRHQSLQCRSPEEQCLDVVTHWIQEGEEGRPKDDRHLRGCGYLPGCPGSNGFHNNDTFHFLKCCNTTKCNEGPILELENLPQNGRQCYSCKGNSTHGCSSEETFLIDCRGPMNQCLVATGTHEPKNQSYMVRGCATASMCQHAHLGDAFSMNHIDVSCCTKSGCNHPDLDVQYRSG

[2] = biological target: T2, NIH 3T3 cells transfected with a human urokinase receptor (Homo sapiens, UniProt Q03405); test: Cellular assay: uPA binding to NIH 3T3 cells transfected with a human urokinase receptor; type: cell-based
T2 construct: expressed in transfected cells; host or cells: NIH 3T3 (clone NIH3T3 CH1 (15.10)), mouse fibroblasts
T2 sequence (Q03405 23-305 limits assumed): as above
Procedure: An enzyme test was used to detect inhibtion of urokinase activity and a cellular assay using NIH 3T3 (from ATCC) cells transfected with a human urokinase receptor was obtained.
Medium: • DMEM (MEM dulbecco/Boehringer) with NaHCO3 and 4.5 g/l Glucose
add: • 10% FCS (Seromed) • 2 mM L-Glutamine • 1 mM Na-Pyruvat • 100 U/ml Penicillin • 100 µg/ml Streptomycin • 1 µg/ml G 418 (Geneticin) • sterilize all supplements by filtration
Take a 1 mg/ml fibronectin solution (in sterile water) and dilute an appropriate aligot with sterile PBS to a final concentration of 50 µg/ml. Coat the 96-well plate with 200 µl//well. Incubate for about 45 min. at room temperature. Remove the solution carefully. The wells should not be allowed to dry, use immediately. Prepare the cells during the 45 min. of incubation with fibronectin. NIH3T3 CH1 (15.10)-cells are grown to confluency in T 175 cell-culture flasks in the above described medium. Remove the media and rinse the cells with PBS, add 2 ml of Trypsin / EDTA solution for cell detachment. Stop trypsin activity by addition of approx. 6 ml medium . Take an aliquot of the cells to determine the cellnumber and adjust the celldensity to 8 x 10^5/ml with medium. Take the fibronectin coated 96 well palate and spread 100 µl cell-suspension/well, let the cells grow to confluency over night.
Discard the medium carefully and wash the cells by addition of 200 µl medium (without supplements) / well and again discarding the medium. Add 200 µl 2% skimmed milk in medium. Incubate for 30 minutes at roomtemperatur. Wash twice with 200 µl medium (w supplements) / well carefully (to remove unbound skimmed milk). Preincubate with 50 µl testcompound diluted in medium, respectively medium only for the controls for 20 minutes; add 50 µl uPA-solution [200 ng/ml]. Incubate for 60 minutes at roomtemperature; wash carefully for 3 times with medium (200 µl/well). […] Measure at a wavelength of 405 nm (reference: 490 nm) with an ELISA-Reader. The yellow colour will appear after about 45 mins.

[3] = biological target: T1, human urokinase (uPA) binding to its specific receptor (uPAR); test: ELISA-Test: inhibition of uPA binding to its specific receptor (uPAR); details: synthetic or commercially available porphyrins; for IC50: read-out: IC50 (µg/ml) ELISA (converted)
Procedure: This test is described by P. Rettenerger et al. in Biol. Chem. Hoppe-Seyler 376, pp. 587-594 (1995). An alternate ELISA-test is described in Behrendt et al., Meth. Enzymol. 233 (1993), 207-222. • ELISA-Test: Inhibition of human urokinase (uPA) binding to its specific receptor (uPAR). The assays are performed in Microtiterplates (96 wells). The following solutions are used: • washing buffer: PBS-buffer (w/o Mg^2+Ca^2+) + 0,05% Tween 20; uPAR-solution 100 ng/ml (10 ng/well) • blocking solution 2% skimmed milk powder (Merck) in washing buffer • incubation buffer 0.5% skimmed milk powder in PBS uPA-solution 10 ng/well detection solutions (per microfilter plate): • (1) 6 ml (100 mM Tris-CI pH 7.5 + 0.15% Tween 80) + 1.5 ml (10 µg) Plasminogen in aqua bidest. • (2) 6 ml (100 mM Tris-CI pH 7.5 + 0.15% Tween 80) + 1.5 ml (7.5 mg) Chromozyme PL in aqua bidest.
The detection solution must be continously stirred.
Testing substances: the testing substances are solved in DMSO. They are used in the test system with a highest concentration of 100 µg/ml. Dissolutions are prepared using PBS.
Three controlls are performed: • a) positive controll: using 2% DMSO in PBS • b) negative controll: assay w/o receptor • c) inhibition controll: Inhibition (IC95 at 0.25 mg/ml) with Dextranesulfate (MW = 500.000)
Each well is incubated by 10 ng uPAR for 1 hour at roomtemperature (RT). After washing once each well is incubated for half an hour (37°C) with 200 µl/well blocking solution. After triple washing testing substance solution or controll solutions are added (50 µl/well and incubated for 15 min at RT. An additional 50 µl of uPA solution (10 ng in incubation buffer) are added. After 1 hour at RT a triple washing is performed.
Incubation 70 µl each of solution (1) and (2) at RT. After 20 min. a yellow color will be visible (the positive control reads an extinction of 1 after 40 min.). The detection is performed at […] (reference is […]) using a Dynatech MR 7000 ELISA reader.
To obtain the percentage of inhibition the following formula is used: % Inhibtion = 100-100* (Extinction (Test) - Extinction (Neg. contr.)/(Extinction (Pos. contr.) - Extinction (Neg. contr.)) [formula]

[4] = biological target: Urokinase (uPA not bound to uPAR) (Homo sapiens, UniProt P00749); test: ENZ: Urokinase-activity-assay (uPA not bound to uPAR); type: biochemical; details: assay without uPAR; for IC50: read-out: IC50 (µg/ml) ENZ (converted)
Procedure: ENZ: Urokinase-activity-assay (uPA not bound to uPAR)
This assay is identical to the uPA/uPAR assay of example one except that no uPAR is used, i.e. no incubation of the wells with uPAR and the following washing steps is necessary.

[5] = NIH3T3 CH1 (15.10)-cells, read-out: IC50 (µg/ml) cells (converted)

IC50 [3] [nM]	IC50 [4] [nM]	Compound	also measured
678	95200	CCOC(=O)CCC1=C(C)c2cc3[nH]c(cc4nc(cc5[nH]c(cc1n2)c(C)c5CCC(=O)OCC)C(CCC(=O)OCC)=C4C)c(C)c3CCC(=O)OCC [Coproporphyrin III tetraethylester]	IC50 [2, 5]: 124000 nM
1820	3510	COC(=O)CCC1=C(C)c2cc3[nH]c(cc4nc(cc5[nH]c(cc1n2)c(CCC(=O)OC)c5C)C(S(=O)(=O)O)=C4C)c(S(=O)(=O)O)c3C [Deuteroporphyrin IX 2,4 Disulfonic Acid dimethylester]	
8400	4280	CC1=C(CCC(=O)O)c2cc3[nH]c(cc4nc(cc5[nH]c(cc1n2)c(C)c5C(O)CO)C(C)=C4C(O)CO)c(C)c3CCC(=O)O (centres unmarked) [Deuteroporphyrin IX 2,4-Bis Glycol]	
266	860	O=C(O)c1ccc(-c2c3nc(c(-c4ccc(C(=O)O)cc4)c4ccc([nH]4)c(-c4ccc(C(=O)O)cc4)c4nc(c(-c5ccc(C(=O)O)cc5)c5ccc2[nH]5)C=C4)C=C3)cc1 [meso-tetra-(4-Carboxyphenyl)-Porphine]	IC50 [2, 5]: 30600 nM

Continued, compound first:

Compound	IC50 [3] [nM]	IC50 [4] [nM]	also measured
C=CC1=C(C)C(=Cc2[nH]c(Cc3[nH]c(C=C4NC(=O)C(C)=C4C=C)c(C)c3CCC(=O)O)c(CCC(=O)O)c2C)NC1=O [Bilirubine]			inhibition at 300 µg/mL [1]: 11%
C=Cc1c(C)c2cc3nc(c(CC(=O)O)c4[nH]c(cc5nc(cc1[nH]2)C(C)=C5CC)c(C)c4C(=O)O)[C@@H](CCC(=O)O)[C@@H]3C [Chlorin e6]	520	2350	IC50 [2, 5]: 12900 nM
CCC1=C(C)c2cc3[nH]c(cc4nc(cc5[nH]c(cc1n2)c(C)c5CCC(=O)O)C(CCC(=O)O)=C4C)c(C)c3CC [Mesoporphyrin IX Dihydrochloride]	406	2120	IC50 [2]: 2770 nM
O=S(=O)(O)c1ccc(-c2c3nc(c(-c4ccc(S(=O)(=O)O)cc4)c4ccc([nH]4)c(-c4ccc(S(=O)(=O)O)cc4)c4nc(c(-c5ccc(S(=O)(=O)O)cc5)c5ccc2[nH]5)C=C4)C=C3)cc1 [meso-tetra-(4-Sulfonatophenyl)-Porphine Dihydrochlorid]	214	674	IC50 ([2]; read-out: IC50 (µg/ml) cells, NIH3T3 CH1 (15.10)-cells): 21300 nM
Al Phtalocyanine Tetrasulfonate			IC50 (µg/ml) ELISA [3]: 3,7 µg/ml; IC50 (µg/ml) ENZ [4]: 2,3 µg/ml
Hematoporphyrin D			IC50 (µg/ml) cells ([2]; NIH3T3 CH1 (15.10)-cells): 1,4 µg/ml; IC50 (µg/ml) ELISA [3]: 0,52 µg/ml; IC50 (µg/ml) ENZ [4]: 3,1 µg/ml
N-Methyl Protoporphyrin IX			IC50 (µg/ml) ELISA [3]: 0,4 µg/ml
